For 26 compounds, MIC and ED50 results are on record in US5910504A, “Hetero-aromatic ring substituted phenyloxazolidinone antimicrobials” (Pharmacia & Upjohn, priority 1997, dated 1999).

In brackets after ≈: the same amount, converted by molar mass. Some results are limits rather than exact numbers.

For orientation: ED50 means the dose at which the effect has come halfway, by size or by number of responders.

In one test the test system is S. pneumoniae, UC 9912. The test can be described thus: In vitro activity: minimum inhibitory concentration (MIC) by agar dilution, S. pneumoniae. Type of test: cell-based. As to conditions: Streptococcus pneumoniae, UC9912; agar dilution; read-out: Minimum Inhibitory Concentration, S. pneumoniae, UC 9912. An excerpt:
(§1) The oxazolidinone antibacterial agents of this invention have useful activity against a variety of organisms. The in vitro activity of compounds of this invention can be assessed by standard testing procedures such as the determination of minimum inhibitory concentration (MIC) by agar dilution as desribed in "Methods for Dilution Antimicrobial Susceptibility Tests for Bacteria That Grow Aerobically" (MFT) published January 1983 by the National Committee for Clinical Laboratory Standards, 771 East Lancaster Avenue, Villanova, Pa. 19084, USA. The activity of selected compounds of this invention against Staphylococcus aureus and Streptococcus pneumoniae are shown in Table 1.
A general note: In agar dilution, organisms are placed on agar that contains the substance at set levels.

Test [1] concerns S. aureus, UC 9213. Kind of test: In vitro activity: minimum inhibitory concentration (MIC) by agar dilution, S. aureus. It is filed as cell-based. The settings on record: Staphylococcus aureus, UC9213; agar dilution; read-out: Minimum Inhibitory Concentration, S. aureus, UC 9213.
Text: as §1

The subject of test [2] is S. aureus, UC 9213. The test can be described thus: In vivo antimicrobial activity, Murine Assay procedure. Also noted: species or system Staphylococcus aureus (infected female mice). The settings on record: Staphylococcus aureus, UC9213, 144 h; female mice, i.p. infection; drug 1 h and 5 h after infection, oral or subcutaneous; six-day survival, probit; read-out: ED50, S. aureus, UC 9213. How it is done: Antimicrobial activity was tested in vivo using the Murine Assay procedure. Groups of female mice (six mice of 18-20 grams each) were injected intraperitoneally with bacteria which were thawed just prior to use and suspended in brain heart infusion with 4% brewers yeast UC9213 (Staphylococcus aureus) or brain heart infusion (Streptococcus species). Antibiotic treatment at six dose levels per drug was administered one hour and five hours after infection by either oral intubation or subcutaneous ("subcut.") routes. Survival was observed daily for six days. ED50 values based on mortality ratios were calculated using probit analysis. The subject compounds were compared against a well-known antimicrobial (Vancomycin) as a control.

Consider `CC(=O)NC[C@H]1CN(c2ccc(-n3cccc3)c(F)c2)C(=O)O1` [Example 1, (S)-N-[[3-[3-Fluro-4-(1H-pyrrol-1-yl)phenyl]-2-oxo-5-oxazolidinyl]methyl]acetamide], for which the MIC with S. pneumoniae, UC 9912 is under 0.5 µg/mL; in the test on S. aureus, UC 9213 [1], under 0.5 µg/mL.
For `CC(=O)NC[C@H]1CN(c2ccc(-n3cccn3)c(F)c2)C(=O)O1` [Example 2, (S)-N-[[3-[3-Fluoro-4-(1H-pyrazol-1-yl)phenyl]-2-oxo-5-oxazolidinyl]methyl]acetamide], the MIC with S. pneumoniae, UC 9912 was found to be 1 µg/mL (≈ 3.14 µM); in the test with S. aureus, UC 9213 [1] it was 2 µg/mL (≈ 6.28 µM).
For the compound `CC(=O)NC[C@H]1CN(c2ccc(-n3ccnc3)c(F)c2)C(=O)O1` [Example 3, (S)-N-[[3-[3-Fluoro-4-(1H-imidazol-1-yl)phenyl]-2-oxo-5-oxazolidinyl]methyl]acetamide], the MIC in the test with S. pneumoniae, UC 9912 is under 0.5 µg/mL; in the test on S. aureus, UC 9213 [1] it was 2 µg/mL (≈ 6.28 µM). In the test on S. aureus, UC 9213 [2], the ED50 is 9.5 mg/kg.
The matching figures for `CC(=O)NC[C@H]1CN(c2ccc(-n3cncn3)c(F)c2)C(=O)O1` [Example 4, (S)-N-[[3-[3-Fluoro-4-(1H-1,2,4-triazol-1-yl)phenyl]-2-oxo-5-oxazolidinyl]methyl]acetamide]: 1 µg/mL (≈ 3.13 µM), 4 µg/mL (≈ 12.5 µM) and 5.7 mg/kg.
As to `CC(=O)NC[C@H]1CN(c2ccc(-n3ccc4ccccc43)c(F)c2)C(=O)O1` [Example 5, (S)-N-[[3-[3-Fluoro-4-(1H-indol-1-yl)phenyl]-2-oxo-5-oxazolidinyl]methyl]acetamide], the MIC stood at 1 µg/mL (≈ 2.72 µM) with S. pneumoniae, UC 9912 and 4 µg/mL (≈ 10.9 µM) with S. aureus, UC 9213 [1].
On to `CC(=O)NC[C@H]1CN(c2ccc(-n3ccnn3)c(F)c2)C(=O)O1` [Example 6, (S)-N-[[3-[3-Fluoro-4-(1H-1,2,3-triazol-1-yl)phenyl]-2-oxo-5-oxazolidinyl]methyl]acetamide], for which the MIC is under 0.5 µg/mL with S. pneumoniae, UC 9912 and 1 µg/mL (≈ 3.13 µM) with S. aureus, UC 9213 [1]. Also, the ED50 in the test with S. aureus, UC 9213 [2] is 4.7 mg/kg.
`O=C(NC[C@H]1CN(c2ccc(-n3ccnn3)c(F)c2)C(=O)O1)C(Cl)Cl` [Example 7, (S)-N-[[3-[3-Fluoro-4-(1H-1,2,3-triazol-1-yl)phenyl]-2-oxo-5-oxazolidinyl]methyl]-2,2-dichloroacetamide]: the MIC in the test with S. pneumoniae, UC 9912 was under 0.5 µg/mL; in the test with S. aureus, UC 9213 [1], 1 µg/mL (≈ 2.58 µM). In addition, in the test with S. aureus, UC 9213 [2], the ED50 was determined as 11.9 mg/kg.
For `CC(=O)NC[C@H]1CN(c2ccc(-n3nccn3)c(F)c2)C(=O)O1` [Example 8, (S)-N-[[3-[3-Fluoro-4-(2H-1,2,3-triazol-2-yl)phenyl]-2-oxo-5-oxazolidinyl]methyl]acetamide], the MIC in the test on S. pneumoniae, UC 9912 was 1 µg/mL (≈ 3.13 µM); in the test with S. aureus, UC 9213 [1], 4 µg/mL (≈ 12.5 µM).
Consider `CC(=O)NC[C@H]1CN(c2ccc(-n3cnnc3S)c(F)c2)C(=O)O1` [Example 9, (S)-N-[[3-[3-Fluoro-4-(3-mercapto-4H-1,2,4-triazol-4-yl)phenyl]-2-oxo-5-oxazolidinyl]methyl]acetamide], for which the MIC is 8 µg/mL (≈ 22.8 µM) in the test on S. pneumoniae, UC 9912 and over 32 µg/mL in the test on S. aureus, UC 9213 [1].
The like results for `CSc1nncn1-c1ccc(N2C[C@H](CNC(C)=O)OC2=O)cc1F` [Example 10, (S)-N-[[3-[3-Fluoro-4-(3-methylthio-4H-1,2,4-triazol-4-yl)phenyl]-2-oxo-5-oxazolidinyl]methyl]acetamide] were, in that order, 1 µg/mL (≈ 2.74 µM) and 8 µg/mL (≈ 21.9 µM).
With `CC(=O)NC[C@H]1CN(c2ccc(-n3cnnc3)c(F)c2)C(=O)O1` [Example 11, (S)-N-[[3-[3-Fluoro-4-(4H-1,2,4-triazol-4-yl)phenyl]-2-oxo-5-oxazolidinyl]methyl]acetamide], the MIC with S. pneumoniae, UC 9912 is 1 µg/mL (≈ 3.13 µM); with S. aureus, UC 9213 [1], over 16 µg/mL.
As for `CC(=O)NC[C@H]1CN(c2ccc(-n3ccc(C=O)c3)c(F)c2)C(=O)O1` [Example 12, (S)-N-[[3-[3-Fluoro-4-(1H-pyrrol-1-yl-3-carboxaldehyde)phenyl]-2-oxo-5-oxazolidinyl]methyl]acetamide], the MIC was under 0.06 µg/mL in the test on S. pneumoniae, UC 9912 and 0.25 µg/mL (≈ 0.724 µM) in the test with S. aureus, UC 9213 [1].
`CC(=O)NC[C@H]1CN(c2ccc(-n3ccc(CO)c3)c(F)c2)C(=O)O1` [Example 13, (S)-N-[[3-[3-Fluoro-4-(3-hydroxymethyl-1H-pyrrol-1-yl)phenyl]-2-oxo-5-oxazolidinyl]methyl]acetamide]: the MIC is 0.25 µg/mL (≈ 0.72 µM) in the test with S. pneumoniae, UC 9912 and 1 µg/mL (≈ 2.88 µM) in the test with S. aureus, UC 9213 [1].
As to `COC(=O)c1ccn(-c2ccc(N3C[C@H](CNC(C)=O)OC3=O)cc2F)c1` [Example 14, (S)-N-[[3-[3-Fluoro-4-(3-carbomethoxy-1H-pyrrol-1-yl)phenyl]-2-oxo-5-oxazolidinyl]methyl]acetamide], the MIC in the test on S. pneumoniae, UC 9912 came out at 0.25 µg/mL (≈ 0.666 µM); in the test on S. aureus, UC 9213 [1], 2 µg/mL (≈ 5.33 µM).
As for `CON=Cc1ccn(-c2ccc(N3C[C@H](CNC(C)=O)OC3=O)cc2F)c1` [Example 15, (S)-N-[[3-[3-Fluoro-4-(1H-pyrrol-1-yl-3-carboxaldehyde)phenyl]-2-oxo-5-oxazolidinyl]methyl]acetamide, methoxime], the MIC worked out at 0.25 µg/mL (≈ 0.668 µM) in the test on S. pneumoniae, UC 9912 and 1 µg/mL (≈ 2.67 µM) with S. aureus, UC 9213 [1]. Besides, the ED50 with S. aureus, UC 9213 [2] was found to be 7.3 mg/kg.
The matching figures for `CC(=O)NC[C@H]1CN(c2ccc(-n3ccc(C=NO)c3)c(F)c2)C(=O)O1` [Example 16, (S)-N-[[3-[3-Fluoro-4-(3-(hydroxyiminomethyl)-1H-pyrrol-1-yl)phenyl]-2-oxo-5-oxazolidinyl]methyl]acetamide]: under 0.25 µg/mL, 1 µg/mL (≈ 2.78 µM) and 5.5 mg/kg.
With `CC(=O)NC[C@H]1CN(c2ccc(-n3cc(C(C)=O)nn3)c(F)c2)C(=O)O1` [Example 17, (S)-N-[[3-[3-Fluoro-4-(4-acetyl-1H-1,2,3-triazol-1-yl)phenyl]-2-oxo-5-oxazolidinyl]methyl]acetamide], the MIC is 0.5 µg/mL (≈ 1.38 µM) in the test with S. pneumoniae, UC 9912 and 1 µg/mL (≈ 2.77 µM) with S. aureus, UC 9213 [1].
With `CC(=O)NC[C@H]1CN(c2ccc(-n3cc(C(C)O)nn3)c(F)c2)C(=O)O1` (stereo partly drawn) [Example 18, (S)-N-[[3-[3-Fluoro-4-(4-(1-hydroxyethyl)-1H-1,2,3-triazol-1-yl)phenyl]-2-oxo-5-oxazolidinyl]methyl]acetamide], the MIC with S. pneumoniae, UC 9912 is 0.5 µg/mL (≈ 1.38 µM); in the test with S. aureus, UC 9213 [1] it was 4 µg/mL (≈ 11 µM).
As for `CC(=O)NC[C@H]1CN(c2ccc(-n3cc(C(C)=NO)nn3)c(F)c2)C(=O)O1` [Example 19], the MIC in the test with S. pneumoniae, UC 9912 turned out to be 0.5 µg/mL (≈ 1.33 µM); in the test with S. aureus, UC 9213 [1], 4 µg/mL (≈ 10.6 µM).
Regarding `COC(=O)c1cn(-c2ccc(N3C[C@H](CNC(C)=O)OC3=O)cc2F)nn1` [Example 20, (S)-N-[[3-[3-Fluoro-4-(4-carbomethoxy-1H-1,2,3-triazol-1-yl)phenyl]-2-oxo-5-oxazolidinyl]methyl]acetamide], the MIC in the test with S. pneumoniae, UC 9912 came out at 1 µg/mL (≈ 2.65 µM); in the test with S. aureus, UC 9213 [1], 4 µg/mL (≈ 10.6 µM).
On to `CC(=O)NC[C@H]1CN(c2ccc(-n3cc(C=O)nn3)c(F)c2)C(=O)O1` [Example 21, (S)-N-[[3-[3-Fluoro-4-(1H-1,2,3-triazol-1-yl-4-carboxaldehyde)phenyl]-2-oxo-5-oxazolidinyl]methyl]acetamide], for which the MIC in the test with S. pneumoniae, UC 9912 turned out to be 0.25 µg/mL (≈ 0.72 µM); in the test with S. aureus, UC 9213 [1] it was 0.5 µg/mL (≈ 1.44 µM).
Regarding `CC(=O)NC[C@H]1CN(c2ccc(-n3cc(CO)cn3)c(F)c2)C(=O)O1` [Example 22, (S)-N-[[3-[3-Fluoro-4-(4-hydroxymethyl-1H-pyrazol-1-yl)phenyl]-2-oxo-5-oxazolidinyl]methyl]acetamide], the MIC in the test with S. pneumoniae, UC 9912 was found to be 0.5 µg/mL (≈ 1.44 µM); in the test on S. aureus, UC 9213 [1], 8 µg/mL (≈ 23 µM).
On to `CCOC(=O)C=Cc1ccn(-c2ccc(N3C[C@H](CNC(C)=O)OC3=O)cc2F)c1` [Example 23, (S)-N-[[3-[3-Fluoro-4-[3-(2-carboethoxyvinyl)-1H-pyrrol-1-yl]phenyl]-2-oxo-5-oxazolidinyl]methyl]acetamide], for which the MIC was determined as 0.5 µg/mL (≈ 1.2 µM) with S. pneumoniae, UC 9912 and 4 µg/mL (≈ 9.63 µM) in the test with S. aureus, UC 9213 [1].
As for `CCOC(=O)CCc1ccn(-c2ccc(N3C[C@H](CNC(C)=O)OC3=O)cc2F)c1` [Example 24, (S)-N-[[3-[3-Fluoro-4-[3-(2-carboethoxyethyl)-1H-pyrrol-1-yl]phenyl]-2-oxo-5-oxazolidinyl]methyl]acetamide], the MIC with S. pneumoniae, UC 9912 turned out to be 0.5 µg/mL (≈ 1.2 µM); with S. aureus, UC 9213 [1], 4 µg/mL (≈ 9.58 µM).
In the case of `CC(=O)NC[C@H]1CN(c2ccc(-n3ccc(CCCO)c3)c(F)c2)C(=O)O1` [Example 25, (S)-N-[[3-[3-Fluoro-4-[3-(3-hydroxypropyl)-1H-pyrrol-1-yl]phenyl]-2-oxo-5-oxazolidinyl]methyl]acetamide], the MIC in the test with S. pneumoniae, UC 9912 turned out to be 0.5 µg/mL (≈ 1.33 µM); with S. aureus, UC 9213 [1], 4 µg/mL (≈ 10.7 µM).
Turning to `CC(=O)NC[C@H]1CN(c2ccc(-n3ccc(CCCNS(C)(=O)=O)c3)c(F)c2)C(=O)O1` [Example 26, (S)-N-[[3-[3-Fluoro-4-[3-(3-methanesulfonylaminopropyl)-1H-pyrrol-1-yl]phenyl]-2-oxo-5-oxazolidinyl]methyl]acetamide], the MIC in the test on S. pneumoniae, UC 9912 came to 0.5 µg/mL (≈ 1.1 µM); in the test on S. aureus, UC 9213 [1] it was 8 µg/mL (≈ 17.7 µM).
